Laboratory results from paper PMC10819771 (Pharmaceuticals, 2023).
Like-named read-outs stand apart in the source and are kept apart here.

How the values were obtained:
MDA-MB-231 = assay: MTT antiproliferative assay, MDA-MB-231; format: cell-based, human; conditions: MTT, 72 h, breast cancer cells, read-out: IC50 Values (μM) ± SEM MDA-MB-231
Experimental: (§1) The growth-inhibitory effects of the compounds were determined by MTT (3-(4,5-dimethylthiazol-2-yl)-2,5-diphenyltetrazolium bromide) assay on selected cell lines, including HeLa and SiHa (cervical cancers), MDA-MB-231 and MCF-7 (breast cancers), and A2780 ovarian cancer cells. All cell lines were purchased from the European Collection of Cell Cultures (Salisbury, UK) except SiHa, which was obtained from the American Tissue Culture Collection (Manassas, VA, USA). The cells were kept in minimum essential medium supplemented with 10% fetal bovine serum, 1% non-essential amino acids, and 1% penicillin-streptomycin-amphotericin-B at 37 °C in a humidified atmosphere containing 5% CO2. Media and supplements were obtained from Lonza Group Ltd., (Basel, Switzerland). Cancer cells were seeded onto 96-well plates (5000 cells/well), after an overnight incubation the test compounds were added in six concentrations (0.1, 0.3, 1.0, 3.0, 10.0, 30.0 µM) and incubated for 72 h under cell-culture condition. After the incubation, 20 μL of 5 mg/mL MTT solution was added to each well and incubated for a further 4 h. The medium was removed, and the precipitated formazan crystals were dissolved in DMSO for 30 min under shaking at 37 °C. The absorbance was measured at 545 nm with a microplate reader. Untreated cells were included as controls. Calculations were performed by means of the GraphPad Prism 5.01 software (GraphPad Software Inc., San Diego, CA, USA). At least two independent determinations were performed with 5 parallel wells for each condition.

A2780 = assay: MTT antiproliferative assay, A2780; format: cell-based, human; conditions: MTT, 72 h, ovarian cancer cells, read-out: IC50 Values (μM) ± SEM A2780
Experimental: as §1

MCF-7 = assay: MTT antiproliferative assay, MCF-7; format: cell-based, human; conditions: MTT, 72 h, breast cancer cells, read-out: IC50 Values (μM) ± SEM MCF-7
Experimental: as §1

Fc-MYCT = assay: FRET-melting, Fc-MYCT; format: binding; conditions: ligand 2 μM, DNA 0.2 μM, K+ conditions, pH 7.2
Experimental: (§2) FRET-melting experiments were conducted on a Stratagene MX3005P (Thermo Fisher Scientific, Illkirch-Graffenstaden, France) real-time PCR equipment in 96-well plates on the DNA sequences reported in Table 4. Experiments were performed in 10 mM lithium cacodylate buffer (pH 7.2) and either 10 mM KCl and 90 mM LiCl (FK-RAST, FBCL-2T, F21T, and FdxT) or 1 mM KCl and 99 mM LiCl (Fc-MYCT) concentrations, depending on the Tm of the G4s alone. The DNA concentration was 0.2 µM. […] Data are presented as an average of three independent measurements, each conducted in duplicate conditions (λexc = 492 nm, λem = 516 nm, T interval = 25–95 °C, ramp: 25 °C for 5 min, then 1 °C/min, measurements every 1 °C, 8× magnification of the fluorescence signal).

FdxT = assay: FRET-melting, duplex control FdxT; format: binding; conditions: ligand 2 μM, DNA 0.2 μM, 10 mM KCl, 90 mM LiCl, pH 7.2, hairpin duplex
Experimental: as §2

FK-RAST = assay: FRET-melting, FK-RAST; format: binding; conditions: ligand 2 μM, DNA 0.2 μM, 10 mM KCl, 90 mM LiCl, pH 7.2
Experimental: as §2

HeLa = assay: MTT antiproliferative assay, HeLa; format: cell-based, human; conditions: MTT, 72 h, cervical cancer cells, read-out: IC50 Values (μM) ± SEM HeLa
Experimental: as §1

K562 = assay: MTS cell proliferation assay, K562; format: cell-based, human; conditions: MTS, 3-day incubation, leukemia cells, read-out: IC50 Values (μM) ± SEM K562
Experimental: The human leukemic cell line K562 was grown in RPMI 1640 medium (Life Technology-Invitrogen by Thermo Fisher Scientific, Saint-Aubin, France) supplemented with 10% fetal calf serum (FCS), antibiotics (100 U/mL penicillin, 100 µg/mL streptomycin), and L-glutamine, (Eurobio, Les Ulis, France) at 37 °C, 5% CO2 in air. The MTS cell proliferation assay (Promega, Charbonnières-les-Bains, France) is a colorimetric assay system, which measures the transformation of a tetrazolium component (MTS) into formazan produced by the mitochondria of viable cells. Cells were washed twice in PBS (Phosphate Buffer Saline) and plated in quadruplicate into microtiter-plate wells in 100 μL culture media with or without our various compounds at increasing concentrations (0, 1, 5, 10, 20, and 50 μM) for 1, 2, and 3 days. After 3 h of incubation at 37 °C with 20 μL MTS/well, the plates were read using an ELISA microplate reader (Thermo, Electrocorporation, Waltham, MA, USA) at 490 nm. The amount of color produced was directly proportional to the number of viable cells. The results are expressed as the concentrations inhibiting cell growth by 50% after a 3-day incubation period. The 50% cytotoxic concentrations (CC50) were determined by linear regression analysis, expressed in μM ± SD (Microsoft Excel).

FBCL-2T = assay: FRET-melting, FBCL-2T; format: binding; conditions: ligand 2 μM, DNA 0.2 μM, 10 mM KCl, 90 mM LiCl, pH 7.2
Experimental: as §2

SiHa = assay: MTT antiproliferative assay, SiHa; format: cell-based, human; conditions: MTT, 72 h, cervical cancer cells, read-out: IC50 Values (μM) ± SEM SiHa
Experimental: as §1

[1] = tested on: human telomeric sequence F21T; assay: FRET-melting, F21T; format: binding; conditions: ligand 2 μM, DNA 0.2 μM, 10 mM KCl, 90 mM LiCl, pH 7.2
Experimental: as §2

| Structure (SMILES) | IC50 (MDA-MB-231; Homo sapiens, MDA-MB-231, 72 h) | IC50 (A2780; Homo sapiens, A2780) | IC50 (MCF-7; Homo sapiens, MCF7, 72 h) | ΔT1/2 (°C) Fc-MYCT (Fc-MYCT) | ΔT1/2 (°C) FdxT (FdxT) | ΔT1/2 (°C) FK-RAST (FK-RAST) | IC50 (HeLa; Homo sapiens, HeLa) | IC50 (K562; Homo sapiens, K562, 72 h) | ΔT1/2 (°C) FBCL-2T (FBCL-2T) | IC50 (SiHa; Homo sapiens, SiHa) | ΔT1/2 (°C) F21T [1] | IC50 (MDA-MB-231) | IC50 (A2780) | IC50 (MCF-7) | IC50 (HeLa) | IC50 (K562) | IC50 (SiHa) |
| --- | --- | --- | --- | --- | --- | --- | --- | --- | --- | --- | --- | --- | --- | --- | --- | --- | --- |
| CN(C)CCCCNCc1ccc(-c2nc(-c3ccc(CNCCCCN(C)C)cc3)c3cccc(-c4ccccc4)c3n2)cc1 [Compound 12l, 2,4-bis{4-[(4-dimethylaminobutyl)aminomethyl]phenyl}-8-phenylquinazoline] | 1.55 ± 0.12 µM | 2.08 ± 0.48 µM | 1.45 ± 0.02 µM | 14.2 ± 1.1 °C | 2.9 ± 0.2 °C | 18.7 ± 0.8 °C | 1.39 ± 0.16 µM | 7 ± 0.2 µM | 17.2 ± 1.2 °C | 1.14 ± 0.51 µM | 24.9 ± 0.3 °C | – | – | – | – | – | – |
| CC1CN(CCCNCc2ccc(-c3nc(-c4ccc(CNCCCN5CCNC(C)C5)cc4)c4cccc(-c5ccccc5)c4n3)cc2)CCN1 (stereo not shown) [Compound 12m, 2,4-bis{4-[(4-(3-methylpiperazin-1-yl)propyl)aminomethyl]phenyl}-8-phenylquinazoline] | – | – | – | 14.6 ± 0.9 °C | 2.2 ± 0.2 °C | 18.2 ± 0.6 °C | – | – | 15.5 ± 0.3 °C | – | 23.3 ± 0.7 °C | 2 ± 0.45 µM | 2.1 ± 0.48 µM | 1.22 ± 0.19 µM | 1.17 ± 0.23 µM | 7 ± 0.2 µM | 0.88 ± 0.14 µM |
| CN1CCN(CCCCNCc2ccc(-c3nc(-c4ccc(CNCCCCN5CCN(C)CC5)cc4)c4cccc(-c5ccccc5)c4n3)cc2)CC1 [Compound 12n, 2,4-bis{4-[(4-(4-methylpiperazin-1-yl)butyl)aminomethyl]phenyl}-8-phenylquinazoline] | 3.94 ± 0.54 µM | 7.1 ± 1.15 µM | 4.17 ± 0.5 µM | 17.0 ± 2.0 °C | 2.4 ± 0.7 °C | 18.0 ± 2.5 °C | 3.51 ± 0.17 µM | 14 ± 0.3 µM | 12.0 ± 2.0 °C | 1.89 ± 0.74 µM | 20.7 ± 3.1 °C | – | – | – | – | – | – |
| CN(C)CCCCNCc1ccc(-c2cc(-c3ccc(CNCCCCN(C)C)cc3)c3cc(-c4ccccc4)ccc3n2)cc1 [Compound 13b, 2,4-bis{4-[(4-dimethylaminobutyl)aminomethyl]phenyl}-6-phenylquinoline] | 3.68 ± 0.8 µM | 6.49 ± 1.76 µM | 3.03 ± 0.64 µM | 13.8 ± 3.0 °C | 1.5 ± 0.6 °C | 19.6 ± 3.5 °C | 3.58 ± 0.18 µM | 13 ± 0.4 µM | 11.1 ± 2.6 °C | 1.76 ± 0.61 µM | 13.6 ± 2.9 °C | – | – | – | – | – | – |
| CC1CN(CCCNCc2ccc(-c3cc(-c4ccc(CNCCCN5CCNC(C)C5)cc4)c4cc(-c5ccccc5)ccc4n3)cc2)CCN1 (stereo not shown) [Compound 13c, 2,4-bis{4-[(4-(3-methylpiperazin-1-yl)propyl)aminomethyl]phenyl}-6-phenylquinoline] | – | – | – | 6.8 ± 1.4 °C | 0.1 ± 0.2 °C | 14.5 ± 0.8 °C | – | – | 7.5 ± 0.5 °C | – | 11.3 ± 0.9 °C | 1.33 ± 0.13 µM | 1.58 ± 0.1 µM | 0.86 ± 0.38 µM | 1.3 ± 0.06 µM | 34 ± 0.7 µM | 1.45 ± 0.13 µM |
